Active and inactive are the calls of the source. The rule behind the calls is not given here.

Sequence of Mu-type opioid receptor (Homo sapiens) + Delta-type opioid receptor (Homo sapiens) (P35372 whole entry, looked up): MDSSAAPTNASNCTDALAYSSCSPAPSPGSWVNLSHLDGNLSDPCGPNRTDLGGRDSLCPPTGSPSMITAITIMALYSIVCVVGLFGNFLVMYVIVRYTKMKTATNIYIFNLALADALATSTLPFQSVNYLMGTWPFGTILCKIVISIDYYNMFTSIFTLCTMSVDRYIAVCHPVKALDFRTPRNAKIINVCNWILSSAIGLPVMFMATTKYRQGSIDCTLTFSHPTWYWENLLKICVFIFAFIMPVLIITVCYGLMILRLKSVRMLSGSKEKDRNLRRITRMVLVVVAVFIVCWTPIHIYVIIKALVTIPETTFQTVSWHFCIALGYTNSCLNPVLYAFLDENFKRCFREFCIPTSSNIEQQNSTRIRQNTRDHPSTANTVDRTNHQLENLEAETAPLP
Sequence of Mu-type opioid receptor (Homo sapiens) + Delta-type opioid receptor (Homo sapiens) (P41143 whole entry, looked up): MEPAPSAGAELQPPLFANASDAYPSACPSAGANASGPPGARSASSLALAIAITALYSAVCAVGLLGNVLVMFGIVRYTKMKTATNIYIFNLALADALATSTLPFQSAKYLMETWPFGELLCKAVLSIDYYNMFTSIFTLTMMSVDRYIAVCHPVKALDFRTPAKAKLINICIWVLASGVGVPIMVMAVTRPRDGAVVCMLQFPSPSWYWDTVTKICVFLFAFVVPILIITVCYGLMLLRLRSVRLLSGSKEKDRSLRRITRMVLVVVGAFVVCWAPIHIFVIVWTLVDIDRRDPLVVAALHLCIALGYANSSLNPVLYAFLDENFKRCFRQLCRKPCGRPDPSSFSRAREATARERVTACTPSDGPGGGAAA

This test concerns the target Mu-type opioid receptor (Homo sapiens) + Delta-type opioid receptor (Homo sapiens) (UniProt P35372+P41143). Put plainly: agonists of MOR-DOR heterodimerization, dose response, cell-based, luminescence (AID 588407).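 Note: potency of agonists raising the heterodimer signal.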 The note with it: cells.
As usually defined, the EC50 is the concentration that produces a half-maximal response. As for `Cc1ccc2c(Cl)c(Cc3ccccc3)c(=S)[nH]c2n1`, the EC50 result was “inactive”.
As to `CN1CCN(c2ccc(NC(=O)c3ccc(-c4cccc([N+](=O)[O-])c4)o3)cc2)CC1`, the EC50 entry is “inactive”.
Consider `COCCN(C(=O)C1CC(=O)N(Cc2ccccc2)C1)c1nc(-c2ccc([N+](=O)[O-])cc2)cs1` (stereo unspecified), for which the concentration giving a half-maximal response (EC50) is 5.6 µM.
As for `OCC1(CCc2ccccc2)CCN(Cc2ccccc2Cl)CC1`, the figure is 9.21 µM; as for `COc1ccc(C(CNC(=O)c2ccc(S(=O)(=O)N(C)C)cc2)N(C)C)cc1` (stereo unspecified), 4.57 µM; as for `CC(=O)CSc1ccc(-c2nc3cc(C)c(C)cc3[nH]2)cn1`, “inactive”.
`Cc1cc(=O)oc2cc(NC(=O)C3COc4ccccc4O3)ccc12` (stereo unspecified): the EC50 result is “inactive”.
In the case of `Cc1ccc(C2(O)CN(c3ccccc3)C3=[N+]2CCS3)cc1` (stereo unspecified) it was 2.93 µM; in that of `COC(=O)C1=CO[C@@H](C)[C@@H]2CN(CCc3c[nH]c4ccccc34)CC[C@H]12`, 4.05 µM; in that of `COCC1CCN(Cc2cn(-c3ccccc3F)nc2-c2cc(C)sc2C)CC1`, “inactive”.
For `CN(C)C(CNC(C(=O)Nc1ccc([N+](=O)[O-])cc1Br)c1ccccc1)c1ccccc1` (stereo unspecified), the EC50 is 9.79 µM.
Consider `O=S(=O)(c1c(Cl)cc(Br)cc1Cl)N1CCN(C(=S)NC2CC2)CC1`, for which the EC50 was 5.98 µM.
As for `Cc1nc2nc(C)n(CCN3CCOCC3)c(=O)c2c(-c2cccc([N+](=O)[O-])c2)c1C(=O)CCCCCCCCCCN1CCC(c2ccccc2)(c2ccccc2)CC1`, the entry is “inactive”; as for `CN(C)CCCN(C(=O)c1ccc(S(=O)(=O)N2CCc3ccccc3C2)cc1)c1nc2ccc(F)cc2s1`, 1.27 µM; as for `CN(C)C(CNC(=S)Nc1cccc(Cl)c1)c1cccnc1` (stereo unspecified), 0.408 µM.
Take `CN(C)CCCN(C(=O)c1ccc(S(=O)(=O)N(C)Cc2ccccc2)cc1)c1nc2c(F)cccc2s1`: the half-maximal effective concentration (EC50) is 4.97 µM.
In the case of `COc1ccc(C2Nc3ccccc3C(=O)N2c2ccc(F)cc2)cc1CSc1ccccn1` (stereo unspecified) it was “inactive”; in that of `CN(C)C(CNC(=O)C1CC(=O)N(Cc2ccccc2)C1)c1ccccc1` (stereo unspecified), “inactive”; in that of `COc1ccc(C(CNC(=O)c2cncc(Br)c2)N(C)C)cc1` (stereo unspecified), 2.02 µM.
As for `Cc1ccc(CSCC(=O)N/N=C/c2sccc2C)cc1`, the concentration for a half-maximal effect (EC50) was 6.07 µM.
Regarding `COc1ccc(-c2nn(-c3ccccc3C)cc2CNCc2cccnc2)cc1F`, the EC50 is 7.79 µM.
As for `CC1(NC(=O)CC(c2ccccc2)(c2ccccc2)c2ccccc2)CCN(CCCc2ccccc2)C1=O` (stereo unspecified), the figure is 0.895 µM.
In the case of `Cc1cc(N2CCN(c3ccc([N+](=O)[O-])c4cccnc34)CC2)c2ccccc2n1` it was > 92.5 µM (inactive).
Regarding `Cc1cc(/C=C2/C(=O)NN(c3ccccc3)C2=O)c(C)n1-c1ccc(O)cc1`, the EC50 is 8.46 µM.
In the case of `CCN1CCN(S(=O)(=O)c2ccc(Cl)c(C(=O)N(CCc3ccccc3)Cc3ccccc3)c2)CC1` it was “inactive”.
For the molecule `Cc1ccc(C)c(-n2cc(CNCCCn3cccn3)c(-c3ccccc3)n2)c1`, the EC50 is 0.654 µM.
As for `CN(C)C(CNC(=O)c1ccc(Br)cc1)c1ccco1` (stereo unspecified), the entry is “inactive”.
As for `CN(C)C(CNC(=O)NC1CCCCC1)c1cccnc1` (stereo unspecified), the figure is 1.27 µM; as for `CCN1CCN(Cc2ccc(NC(=O)c3ccc(C)c(NC(=O)c4c[nH]c5cc(C(F)(F)F)ccc5c4=O)c3)cc2C(F)(F)F)CC1`, 9.63 µM.
In the case of `Cc1cccc(NC(=S)NCC(c2cccnc2)N(C)C)c1C` (stereo unspecified) it was 0.303 µM; in that of `CN1CCN(c2ccc(NC(=O)c3ccc(-c4ccccc4F)o3)cc2)CC1`, 3.26 µM; in that of `Clc1ccc2c(N/N=C/c3ccccc3Br)ccnc2c1`, 9.73 µM.
With `CCN(CC)Cc1cc(Nc2c3ccccc3nc3c4ccccc4n(C)c23)cc(CN(CC)CC)c1O`, the EC50 is 1.78 µM.
As for `COCCCn1c(N)c(-c2nc3ccccc3n2C)c2nc3ccccc3nc21`, the figure is 4.2 µM; as for `O=C(Nc1ccccc1)c1ccc(NC2CCCCC2)c(S(=O)(=O)N2CCOCC2)c1`, “inactive”; as for `CCOC(=O)C1(Cc2ccccc2)CCN(Cc2cccn2-c2nccs2)CC1`, “inactive”.
Turning to `COc1cc(Br)cc(/C=N/NC(=O)Cc2ccc(C(F)(F)F)cc2[N+](=O)[O-])c1O`, the EC50 entry is “inactive”.
In the case of `CN(C)C(CNC(=O)CSC(=S)N1CCCC1)c1ccccc1` (stereo unspecified) it was 0.969 µM; in that of `CCCCCCCCCCOC(=O)Cn1c(COc2ccccc2C)[n+](C)c2ccccc21`, “inactive”.
As for `COC(=O)c1cc2c(n1S(=O)(=O)c1ccc(C)cc1)C(=O)C(=O)c1[nH]cc(C(=O)OCc3ccccc3)c1-2`, the EC50 was 2.56 µM.
In the case of `COc1ccc(C2CC(c3ccc(OC)cc3)n3nc(NC(=O)c4cccs4)nc3N2)cc1` (stereo unspecified) it was “inactive”; in that of `CN(C)C(CNC(=O)c1cccc(C(F)(F)F)c1)c1ccco1` (stereo unspecified), > 92.4 µM (inactive).
As for `COc1ccc(C2C(C#N)=C(N)N(c3sc4c(c3C#N)CCCC4)C3=C2C(=O)CC(C)(C)C3)cc1` (stereo unspecified), the figure is 4.6 µM.
As for `CN(C)CCCN(C(=O)c1ccc(S(=O)(=O)N2CCc3ccccc3C2)cc1)c1nc2c(F)cc(F)cc2s1`, the figure is 0.856 µM.
As to `COC(=O)NCC(c1ccc2c(c1)OCO2)N1CCN(c2ccccc2)CC1` (stereo unspecified), the half-maximal effective concentration (EC50) is 1.25 µM.
For `CN(C)C(CNC(=O)c1cnc(Cl)c(Cl)c1)c1ccccc1` (stereo unspecified), the 50% effective concentration (EC50) is 0.555 µM.
As for `Cc1cccc(NC(=S)NCC(c2cccnc2)N(C)C)c1` (stereo unspecified), the figure is 1.02 µM; as for `COc1ccc(C(CNC(=O)CCOc2ccccc2)N(C)C)cc1` (stereo unspecified), “inactive”.
In the case of `CN1C2C=C(N(CCc3ccccc3)C(=O)c3ccc(Cl)cc3)CC1CC2` (stereo unspecified) it was “inactive”; in that of `Cc1ccc(C)c(NC(=S)NCC(c2ccccc2)N(C)C)c1` (stereo unspecified), 0.535 µM; in that of `CSCCCNC(=O)c1ccc(OC2CCN(CCc3ccccc3)CC2)cc1`, “inactive”.
As for `OCC1(CCc2ccccc2)CCN(Cc2cccn2-c2cccnc2)CC1`, the EC50 was 4.69 µM.
As for `CC(=O)C1CCC2C3CC=C4CC(SC(=N)N)CCC4(C)C3CCC12C` (stereo unspecified), the figure is 9.58 µM.
With `CCc1ccc(NC(=O)N(CCCN2CCOCC2)Cc2cccs2)cc1`, the EC50 result is “inactive”.
In the case of `COc1cc(NC(=O)c2cccc(C)c2)ccc1NC(=O)c1cc2ccccc2o1` it was “inactive”; in that of `CCOC(=O)C1(CC2CCCCO2)CCN(Cc2cc(F)ccc2-n2cccn2)CC1` (stereo unspecified), 8.74 µM; in that of `Cc1ccccc1N1CC(O)(c2ccccc2)[N+]2=C1SCC2` (stereo unspecified), 2.12 µM.
In the case of `c1ccc(C2(N3CCCCC3)CCCCC2)cc1` it was 0.961 µM.
In the case of `CN(C)C(CNC(=S)Nc1cccc(Cl)c1)c1ccccc1` (stereo unspecified) it was 0.375 µM; in that of `Cc1cccc2cc(C(c3nnnn3Cc3ccccc3)N3CCN(C)CC3)c(=O)[nH]c12` (stereo unspecified), “inactive”.
Take `COc1cccc(CC2(CO)CCCN(Cc3ccccc3-c3ccco3)C2)c1` (stereo unspecified): the EC50 is 8.88 µM.
Turning to `COc1ccc(C(CNC(=O)C(C)c2ccc3cc(OC)ccc3c2)N(C)C)cc1` (stereo unspecified), the EC50 result was “inactive”.
As for `O=C(OC1C2CCC1C1CN(CCc3ccccc3)CC12)c1ccccc1` (stereo unspecified), the entry is “inactive”; as for `Cn1c(-c2c(N)n(CCc3ccccc3)c3nc4ccccc4nc23)nc2ccccc21`, 3.15 µM.
In the case of `CN(C)CCCN(C(=O)c1ccc(Br)s1)c1nc2cc3c(cc2s1)OCCO3` it was “inactive”; in that of `CCc1ccc(Nc2n[n+](-c3ccccc3)c(-c3c(Cl)cccc3Cl)s2)cc1`, 9.08 µM; in that of `COc1ccc(-c2csc(N(CCCN(C)C)C(=O)c3cccs3)n2)cc1`, “inactive”.
In the case of `COc1ccc(CN2CCc3c([nH]c4ccccc34)C2)c(OC)c1C` it was “inactive”; in that of `OCC1(CC2CCCCO2)CCN(Cc2ccccc2-c2ccco2)CC1` (stereo unspecified), 4.76 µM; in that of `OC(CN1CCN(C(c2ccccc2)c2ccccc2)CC1)c1ccccc1` (stereo unspecified), “inactive”.
Consider `CC(C)c1ccc(NC(=O)N(CCc2nc3ccccc3[nH]2)C2CCCC2)cc1`, for which the EC50 entry was “inactive”.
As for `COc1cccc(C(=O)Nc2ccc3c(c2)C(=O)c2ccccc2C3=O)c1`, the figure is 6.74 µM.
Regarding `COc1ccc(C(CNC(=O)/C=C/c2c(Cl)nc3ccccn23)N(C)C)cc1` (stereo unspecified), the EC50 is 7.62 µM.
Regarding `CCCC(=O)NC(C)C(c1cccs1)N1CCN(c2ccccc2)CC1` (stereo unspecified), the EC50 entry is “inactive”.
In the case of `COc1ccc(/C=C/C(=O)NC(=S)NCCc2ccc(OC)c(OC)c2)cc1` it was 8.72 µM; in that of `CC1[C@H]2Cc3ccc(O)cc3[C@]1(C)CCN2C` (stereo partly specified), “inactive”; in that of `Cc1occc1C(=O)N/N=C/c1ccc(-c2ccccc2)cc1`, > 92.4 µM (inactive).
In the case of `Cc1ccccc1NC(=S)NCC(c1cccnc1)N(C)C` (stereo unspecified) it was 1.54 µM.
As for `CCOC(=O)c1c(C)[nH]c(C(=O)OCC(O)=C(C#N)c2nc3ccccc3[nH]2)c1C`, the figure is > 92.5 µM (inactive); as for `CCOc1ccc(S(=O)(=O)Nc2cccc(C(=O)NCC(c3ccccc3)N(C)C)c2)cc1` (stereo unspecified), 7.76 µM; as for `CCN(Cc1ccccc1)S(=O)(=O)c1ccc(C(=O)N(CCCN(C)C)c2nc3c(C)c(C)ccc3s2)cc1`, “inactive”.
Consider `Cc1cc(C)cc(C(=O)N(CCc2ccccc2)C2=CC3CCC(C2)N3C)c1` (stereo unspecified), for which the EC50 was 5.91 µM.
Turning to `Cc1cc(/C=C2\SC(=S)N(C)C2=O)c(C)n1-c1ccc(O)cc1`, the EC50 result is “inactive”.
On to `Cc1c(CCOC(=O)c2ccccc2)sc[n+]1CC(=O)c1ccc(Br)cc1`, for which the EC50 result was “inactive”.
In the case of `Cc1ccc(Cl)cc1NC(=O)CNCC(c1ccccc1)N(C)C` (stereo unspecified) it was 9.86 µM; in that of `COc1ccc(-n2cc(CNCc3cccnc3)c(-c3cccc(F)c3)n2)cc1`, “inactive”.
As for `COc1ccc(C(CNc2ncnc3sc(C)c(C)c23)N(C)C)cc1` (stereo unspecified), the figure is 6.83 µM.
As for `COc1ccc(-c2nc(CN3CCC(C(=O)NC4CCCc5ccccc54)CC3)c(C)o2)cc1OC` (stereo unspecified), the figure is 1.9 µM.
With `CCC(=O)OC(Cc1ccccc1)(c1ccccc1)[C@H](C)CN(C)C` (stereo partly specified), the EC50 was 9.98 µM.
In the case of `COc1ccccc1NC(=O)c1sc2nc(C)cc(C)c2c1N` it was > 92.5 µM (inactive).
With `CCOC(=O)C1(CC2CC2)CCN(Cc2cnc(-c3ccccc3C)nc2)CC1`, the EC50 entry was “inactive”.

The values above are taken from PubChem BioAssay AID588407 (The Scripps Research Institute Molecular Screening Center, 2011).
